Legend:
MOLM14 cells = experiment: Proliferation assay (spheroid assay) in MOLM14; type: cell-based; settings: Homo sapiens, MOLM-14, 192 h; MOLM14 (MLL-AF9), 8 days, confluence as measure of spheroid size; read-out: spheroid assay_OneTime MOLM14 IC50
Description: (§1) The anti-proliferative effect of menin/MLL protein/protein interaction inhibitor test compounds was assessed in human leukemia cell lines. The cell line MOLM14 harbors a MLL translocation and expresses the MLL fusion proteins MLL-AF9, respectively, as well as the wildtype protein from the second allele. […] KO-52 was used as a control cell line containing two MLL (KMT2A) wildtype alleles in order to exclude compounds that display general cytotoxic effects.
MOLM14 cells were cultured in RPMI-1640 (Sigma Aldrich) supplemented with 10% heat-inactivated fetal bovine serum (HyClone), 2 mM L-glutamine (Sigma Aldrich) and 50 µg/ml gentamycin (Gibco). KO-52 cell lines were propagated in alpha-MEM (Sigma Aldrich) supplemented with 20% heat-inactivated fetal bovine serum (HyClone), 2 mM L-glutamine (Sigma Aldrich) and 50 µg/ml gentamycin (Gibco).
In order to assess the anti-proliferative effects, 200 MOLM14 cells, or 300 KO-52 cells were seeded in 200 μl media per well in 96-well round bottom, ultra-low attachment plates (Costar, catalogue number 7007). Cell seeding numbers were chosen based on growth curves to ensure linear growth throughout the experiment. Test compounds were added at different concentrations and the DMSO content was normalized to 0.3%. Cells were incubated for 8 days at 37° C. and 5% CO2. Spheroid like growth was measured in real-time by live-cell imaging (IncuCyteZOOM, Essenbio, 4× objective) acquiring images at day 8. Confluence (%) as a measure of spheroid size was determined using an integrated analysis tool.
In order to determine the effect of the test compounds over time, the confluence in each well as a measure of spheroid size, was calculated. Confluence of the highest dose of a reference compound was used as baseline for the LC (Low control) and the confluence of DMSO treated cells was used as 0% cytotoxicity (High Control, HC).
Absolute IC50 values were calculated as percent change in confluence as follows:
LC=Low Control: cells treated with e.g. 1 μM of the cytotoxic agent staurosporin, or e.g. cells treated with a high concentration of an alternative reference compound
GraphPad Prism (version 7.00) was used to calculate the IC50. Dose-response equation was used for the plot of % Effect vs Log10 compound concentration with a variable slope and fixing the maximum to 100% and the minimum to 0%.

Menin/MLL = biological target: T1, Menin/MLL (Homo sapiens, UniProt O00255, T541A); experiment: Menin/MLL homogenous time-resolved fluorescence (HTRF) assay; type: binding; settings: 30 min incubation of test compound with terbium chelate-labeled menin; FITC-MBM1 peptide
T1 construct: Menin (a.a 1-610-6xhis tag)
T1 sequence (O00255 with tags, fused parts or gaps T541A): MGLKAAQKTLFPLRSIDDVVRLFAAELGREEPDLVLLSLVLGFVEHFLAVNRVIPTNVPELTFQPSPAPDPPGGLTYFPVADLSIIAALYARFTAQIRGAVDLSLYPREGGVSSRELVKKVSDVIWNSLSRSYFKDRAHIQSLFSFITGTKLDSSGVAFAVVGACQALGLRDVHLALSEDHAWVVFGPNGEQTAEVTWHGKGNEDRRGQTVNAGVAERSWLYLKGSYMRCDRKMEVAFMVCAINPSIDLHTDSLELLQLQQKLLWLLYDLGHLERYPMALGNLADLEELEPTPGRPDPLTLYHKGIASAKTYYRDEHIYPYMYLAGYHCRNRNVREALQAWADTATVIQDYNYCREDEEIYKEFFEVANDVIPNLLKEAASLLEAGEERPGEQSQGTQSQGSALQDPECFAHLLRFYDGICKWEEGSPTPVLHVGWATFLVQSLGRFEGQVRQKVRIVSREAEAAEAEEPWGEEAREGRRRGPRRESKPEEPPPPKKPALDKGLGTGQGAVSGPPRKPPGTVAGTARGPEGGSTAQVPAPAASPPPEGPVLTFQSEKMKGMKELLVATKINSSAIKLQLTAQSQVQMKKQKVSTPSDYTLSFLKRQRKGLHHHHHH
Description: 1) Menin/MLL homogenous time-resolved fluorescence (HTRF) assay
To an untreated, white 384-well microtiter plate was added 40 nL 200X test compound in DMSO and 4 μL 2X terbium chelate-labeled menin (vide infra for preparation) in assay buffer (40 mM Tris-HCl, pH 7.5, 50 mM NaCl, 1 mM DTT (dithiothreitol) and 0.05% Pluronic F-127). After incubation of test compound and terbium chelate-labeled menin for 30 min at ambient temperature, 4 μL 2X FITC-MBM1 peptide (FITC-β-alanine-SARWRFPARPGT-NH2 (SEQ ID NO: 2)) (“FITC” means fluorescein isothiocyanate) in assay buffer was added, the microtiter plate centrifuged at 1000 rpm for 1 min and the assay mixtures incubated for 15 min at ambient temperature. The relative amount of menin FITC--MBM1 complex present in an assay mixture is determined by measuring the homogenous time-resolved fluorescence (HTRF) of the terbium/FITC donor/acceptor fluorphore pair using an EnVision microplate reader (ex. 337 nm/terbium em. 490 nm/FITC em. 520 nm) at ambient temperature. The degree of fluorescence resonance energy transfer (the HTRF value) is expressed as the ratio of the fluorescence emission intensities of the FITC and terbium fluorophores (F^em 520 nm/F^em 490 nm). The final concentrations of reagents in the binding assay are 200 pM terbium chelate-labeled menin, 75 nM FITC-MBM1 peptide and 0.5% DMSO in assay buffer. Dose-response titrations of test compounds are conducted using an 11 point, four-fold serial dilution scheme, starting typically at 10 μM.
Compound potencies were determined by first calculating % inhibition at each compound concentration according to equation 1: […]
Where LC and HC are the HTRF values of the assay in the presence or absence of a saturating concentration of a compound that competes with FITC-MBM1 for binding to menin, and HTRF^compound is the measured HTRF value in the presence of the test compound. HC and LC HTRF values represent an average of at least 10 replicates per plate.
Where Bottom and Top are the lower and upper asymptotes of the dose-response curve, respectively, IC50 is the concentration of compound that yields 50% inhibition of signal and h is the Hill coefficient. IC50 values below 0.1 nM in the HTRF assay were reported as 0.1 nM in the Table below (detection limit).
Preparation of Terbium cryptate labeling of Menin: Menin (a.a 1-610-6xhis tag, 2.3 mg/mL in 20 mM Hepes (2-[4-(2-Hydroxyethyl)-1-piperazinyl]ethane sulfonic acid), 80 mM NaCl, 5 mM DTT (Dithiothreitol), pH 7.5) was labeled with terbium cryptate as follows. 200 μg of Menin was buffer exchanged into lx Hepes buffer. 6.67 μM Menin was incubated with 8-fold molar excess NHS (N-hydroxysuccinimide)-terbium cryptate for 40 minutes at room temperature. Half of the labeled protein was purified away from free label by running the reaction over a NAP5 column with elution buffer (0.1M Hepes, pH 7+0.1% BSA (bovine serum albumin)). The other half was eluted with 0.1 M phosphate buffered saline (PBS), pH7. 400 μl of eluent was collected for each, aliquoted and frozen at −80° C. The final concentration of terbium-labeled Menin protein was 115 μg/mL in Hepes buffer and 85 μg/mL in PBS buffer, respectively.

KO-52 cells = experiment: Proliferation assay (spheroid assay) in KO-52 control cell line; type: cell-based; settings: Homo sapiens, 192 h; KO-52 (MLL wildtype control), 8 days, confluence as measure of spheroid size; read-out: spheroid assay_OneTime KO-52 IC50
Description: as §1
MOLM14 cells were cultured in RPMI-1640 (Sigma Aldrich) supplemented with 10% heat-inactivated fetal bovine serum (HyClone), 2 mM L-glutamine (Sigma Aldrich) and 50 µg/ml gentamycin (Gibco). […]
In order to assess the anti-proliferative effects, 200 MOLM14 cells, or 300 KO-52 cells were seeded in 200 μl media per well in 96-well round bottom, ultra-low attachment plates (Costar, catalogue number 7007). […] Spheroid like growth was measured in real-time by live-cell imaging (IncuCyteZOOM, Essenbio, 4× objective) acquiring images at day 8. Confluence (%) as a measure of spheroid size was determined using an integrated analysis tool.
In order to determine the effect of the test compounds over time, the confluence in each well as a measure of spheroid size, was calculated. […]
Absolute IC50 values were calculated as percent change in confluence as follows: […]

SMILES | IC50 (MOLM14 cells) [nM] | IC50 (Menin/MLL) [nM] | IC50 (KO-52 cells) [nM]
CCN(C(=O)c1cc(F)ccc1Oc1nncnc1N1CCC2(C1)CN(C(CCCN(C)CCOCCCCN)C(C)C)C2)C(C)C (single isomer, unassigned) [Compound 6] | 100 | – | –
CCN(C(=O)c1cc(F)ccc1Oc1nncnc1N1CCC2(C1)CN(C(CCCN(C)CCOC(F)F)C(C)C)C2)C(C)C (single isomer, unassigned) [Compound 8] | 16 | 0.182 | –
COCCN(C)CCC[C@H](C(C)C)N1CC2(CCN(c3ncnnc3Oc3ccc(F)cc3C(=O)N(CCN)C(C)C)C2)C1 (single isomer, unassigned) [Compound 9] | 190 | – | –
COCCN(C)CCC[C@H](C(C)C)N1CC2(CCN(c3ncnnc3Oc3ccc(F)cc3C(=O)N(CCCCN)C(C)C)C2)C1 (single isomer, unassigned) [Compound 10] | 460 | – | –
CCN(C(=O)c1cc(F)ccc1Oc1nncnc1N1CCC2(C1)CN(C(CCCN(C)CCSC)C(C)C)C2)C(C)C (single isomer, unassigned) [Compound 1] | 50 | – | 11900
CCN(C(=O)c1cc(F)ccc1Oc1nncnc1N1CCC2(C1)CN(C(CCCNCCOC(F)F)C(C)C)C2)C(C)C (single isomer, unassigned) [Compound 7] | 7 | 0.121 | –
COCCN(C)CCC[C@H](C(C)C)N1CC2(CCN(c3ncnnc3Oc3ccc(F)cc3C(=O)N(CCNC(C)=O)C(C)C)C2)C1 [Compound 15] | 470 | 0.331 | –
CCN(C(=O)c1cc(F)ccc1Oc1nncnc1N1CCC2(C1)CN(C(CCCNCCSC)C(C)C)C2)C(C)C (single isomer, unassigned) [Compound 3] | 5 | – | –
CC(C)N(C(=O)c1cc(F)ccc1Oc1nncnc1N1CCC2(C1)CN(C(CC(O)CN(C)C)C(C)(C)C)C2)C(C)C (single isomer, unassigned) [Compound 23] | – | 4.57 | –
CCN(C(=O)c1cc(F)cc(Br)c1Oc1nncnc1N1CCC2(C1)CN([C@H](CCCN(C)CCOC)C(C)C)C2)C(C)C [Compound 21] | – | 13.7 | –
CCN(CC(C)O)C(=O)c1cc(F)ccc1Oc1nncnc1N1CCC2(C1)CN(C(CCCN(C)CCOC)C(C)C)C2 (stereo not drawn) [Compound 14] | > 940 | 6.66 | –
CCN(C(=O)c1cc(F)ccc1Oc1nncnc1N1CCC2(C1)CN(C(CCCNCCOC(F)(F)F)C(C)C)C2)C(C)C (single isomer, unassigned) [Compound 4] | 21 | 0.208 | –
C=CCN(C)CCCC(C(C)C)N1CC2(CCN(c3ncnnc3Oc3ccc(F)cc3C(=O)N(CC)C(C)C)C2)C1 (single isomer, unassigned) [Compound 12] | 29 | – | –
CCN(C)C[C@@H](O)C[C@H](N1CC2(CCN(c3ncnnc3Oc3ccc(F)cc3C(=O)N(CC)C(C)C)C2)C1)C(C)(C)C (single isomer, unassigned) [Compound 25] | – | 6.46 | –
CCN(C(=O)c1cc(F)ccc1Oc1nncnc1N1CCC2(C1)CN(C(CCCN(C)CCOC)C(C)(C)C)C2)C(C)C (single isomer, unassigned) [Compound 13b] | 21 | – | –
CCN(C(=O)c1cc(F)ccc1Oc1nncnc1N1CCC2(C1)CN(C(CCCN(C)CCOC)C(C)(C)C)C2)C(C)C (single isomer, unassigned) [Compound 13a] | – | 1.97 | –
CCN(CC(C)O)C(=O)c1cc(F)ccc1Oc1nncnc1N1CCC2(C1)CN(C(CCCN(C)CCOC)C(C)C)C2 (single isomer, unassigned) [Compound 17] | – | 79.3 | –
COCCN(C)CCC[C@H](C(C)C)N1CC2(CCN(c3ncnnc3Oc3ccc(F)cc3C(=O)N(CCO)C(C)C)C2)C1 [Compound 19] | 32 | – | –
CC(C)N(C(=O)c1cc(F)ccc1Oc1nncnc1N1CCC2(C1)CN(C(CC(O)CN(C)C)C(C)(C)C)C2)C(C)C (single isomer, unassigned) [Compound 22] | – | 18.2 | –
CCN(C(=O)c1cc(F)ccc1Oc1nncnc1N1CCC2(C1)CN(C(CCCN(C)CCOCCN)C(C)C)C2)C(C)C (single isomer, unassigned) [Compound 5] | 220 | 0.11 | –
C#CCN(C)CCCC(C(C)C)N1CC2(CCN(c3ncnnc3Oc3ccc(F)cc3C(=O)N(CC)C(C)C)C2)C1 (single isomer, unassigned) [Compound 11] | 60 | – | –
CCN(C)C[C@H](O)C[C@@H](N1CC2(CCN(c3ncnnc3Oc3ccc(F)cc3C(=O)N(CC)C(C)C)C2)C1)C(C)(C)C (single isomer, unassigned) [Compound 24] | – | 35.5 | –
CCN(C(=O)c1cc(F)ccc1Oc1nncnc1N1CCC2(C1)CN([C@H](CCN(C)CCS(N)(=O)=O)C(C)C)C2)C(C)C (single isomer, unassigned) [Compound 20] | 430 | 0.29 | –
CCN(C[C@@H](C)O)C(=O)c1cc(F)ccc1Oc1nncnc1N1CCC2(C1)CN([C@H](CCCN(C)CCOC)C(C)C)C2 (single isomer, unassigned) [Compound 18] | – | 35.5 | –
CCN(CC(C)O)C(=O)c1cc(F)ccc1Oc1nncnc1N1CCC2(C1)CN(C(CCCN(C)CCOC)C(C)C)C2 (single isomer, unassigned) [Compound 16] | – | 2.97 | –

Reference: patent US20250333421A1, “PYRIDAZINES OR 1,2,4-TRIAZINES SUBSTITUTED BY SPIROCYCLIC AMINES” (Janssen Pharmaceutica NV, priority 2021, published 2025)
